Measurements from patent publication US8846107B2, “In situ generation of peroxycarboxylic acids at alkaline pH, and methods of use thereof” (priority 2010, dated 2014).

How the values were obtained:
[1] = system: Escherichia coli ATCC 11229; assay: Sanitizing efficacy of in situ generated peroxycarboxylic acids; type: cell-based; settings: 25° C.
Procedure: A study was run to evaluate the sanitizing efficacy of mixtures of peroxycarboxylic acids generated in situ from esters under alkaline conditions. For this study the following ester based peroxycarboxylic acid forming compositions were used.
The above Peroxycarboxylic acid premixes were then tested alone at various concentrations, and mixed at various concentrations against Staphylococcus aureus ATCC 6538, and Escherichia coli ATCC 11229.
The test substances were tested against Staphylococcus aureus ATCC 6538, and Escherichia coli ATCC 11229 at 25° C.±1° C. for 30 seconds. A neutralizer screen was performed as part of the testing to verify that the neutralizer adequately neutralized the product and was not detrimental to the tested organisms.

[2] = Coupling of precipitated POOA solution by surfactants and hydrotropes; type: physicochemical; settings: 1000 ppm POOA in DI Water
Procedure: A variety of surfactants were analyzed for coupling and/or dispersion stabilizing of a peroxycarboxylic acid composition generated according to the methods of the invention. In particular, a peroxyoctanoic acid (POOA) composition in deionized water produced according to the invention was analyzed for coupling and/or dispersion stabilization using the dispersing agents set forth in Table 14A.
Given the very limited water solubility of POOA in its protonated form, acidification of the alkaline perhydrolysis solutions of the same causes immediate precipitation and rapid phase separation. In this example various surfactants and hydrotropes were evaluated for their ability to couple the POOA. In Table 14A it can be seen that the most efficient agents for coupling an already precipitated solution of POOA were samples I and II.

[3] = Dispersion stability of acidified POOA solutions with dispersing agents; type: physicochemical
Procedure: The SLS, LAS and SOA dispersing agents were then further examined for efficacy in stabilizing and/or dispersing in 1% or lower sulfuric acid solutions. Solutions were made according to the following order (3, 6, 9, 12, 1, 4, 7, 10, 2, 5, 8, 11, 13, 14). Solution 13 was made as 1 through 12 with the addition of 50 mL of 5 grain hard water to the aliquot of alkaline reaction solution followed by swirling with the surface aliquot and then additional 50 mL of 5 grain hard water, followed within about 5 seconds by 50 mL of 5 grain 2% sulfuric acid and swirled. Solution 14 was made by direct addition of 1% sulfuric acid (5 grain) without pre-dilution, but after moments of swirling with SLS aliquot. All concentrations are shown in ppm.
For the POOA solutions the targeted peracid concentration was based upon initial average of about 5.40 wt-% of ongoing cold alkaline peracid hydrolysis according to the invention (**), wherein the aliquot was constant while POOA was increasing.
The appearance of an oil sheen was regarded as a pass or fail.

[4] = 13 ppm POOA, pH 4.98, 30 seconds
[5] = 15 ppm POOA, pH 5.01, 30 seconds
[6] = 20 ppm POOA, pH 4.98, 30 seconds
[7] = 35 ppm POAA, pH 5.00, 30 seconds
[8] = 61 ppm POAA, pH 5.00, 30 seconds

## CCCCCCCC(=O)OO [POOA, peroxyoctanoic acid]
[1]; [4]
  Average Log10 Survivors: 7.59 Log10
  Log Reduction: 0.46 Log
  Survivors (CFU/mL): 4.22 × 10^7 CFU/mL
[1]; [5]
  Average Log10 Survivors: 7.15 Log10
  Log Reduction: 0.90 Log
  Survivors (CFU/mL): 1.06 × 10^7 CFU/mL
[1]; [6]
  Average Log10 Survivors: 5.85 Log10
  Log Reduction: 2.20 Log

## CCCCCCCCS(=O)(=O)[O-].[Na+] [VII, Sodium octanesulfonate]
[2]
  Amount of (B) Required for Coupling (g/200 g aq POOA): 6.60 g/200 g aq POOA

## Alkyl Polyglycosides [VI]
[2]
  Amount of (B) Required for Coupling (g/200 g aq POOA): 2.46 g/200 g aq POOA

## CCCCCCCCCCCCOS(=O)(=O)[O-].[Na+] [I, Sodium Lauryl Sulfate]
[3]; acidic, aqueous dispersions of POOA
  dispersant performance for acidified POOA: exceptional dispersant
[2]
  Amount of (B) Required for Coupling (g/200 g aq POOA): 0.64 g/200 g aq POOA

## CC(=O)OO [POAA, peroxyacetic acid]
[1]; [7]
  Average Log10 Survivors: 7.27 Log10
  Log Reduction: 0.78 Log
  Survivors (CFU/mL): 1.85 × 10^7 CFU/mL
[1]; [8]
  Average Log10 Survivors: 3.93 Log10
  Log Reduction: 4.12 Log
  Survivors (CFU/mL): 3.0 × 10^3 CFU/mL

## Sodium Lauryl Ether Sulfate [III]
[2]
  Amount of (B) Required for Coupling (g/200 g aq POOA): >0.94 g/200 g aq POOA

## CCCCC(CC)COC(=O)CC(C(=O)OCC(CC)CCCC)S(=O)(=O)[O-].[Na+] (centres unmarked) [X, Sodium dioctyl Sulfosuccinates]
[2]
  Amount of (B) Required for Coupling (g/200 g aq POOA): >2.0 g/200 g aq POOA

## Linear Aryl Sulfonate [II]
[3]; acidified POOA in 10,000 ppm H2SO4, oil sheen regarded as fail
  oil sheen at 23 h: minimal surface oil
[2]
  Amount of (B) Required for Coupling (g/200 g aq POOA): 0.65 g/200 g aq POOA
[2]; listed as LAS
  Amount of (B) Required for Coupling (g/200 g aq POOA): 0.64 g/200 g aq POOA
